Laboratory results reported in patent US20150250782A1, “Methods and Compositions for Hypotensive Resuscitation” (Pharmazz, Inc., priority 2012, published 2015).

Tests used:
hemorrhaged rats = settings: Gill, Pelit et al. 2011; cited from earlier work
α2 adrenergic receptors = experiment: Centhaquin resuscitation with and without α2 adrenergic antagonists: arterial blood hematocrit, pH, gases, electrolytes, lactate; type: in vivo, rat; settings: hemorrhaged rats
[1] = system: urethane anesthetized rats; experiment: Cardiovascular effects in urethane anesthetized rats, centhaquin vs centhaquin citrate; type: in vivo, rat; settings: 0.05, 0.15, 0.45 mg/kg; 60 minute period; mean blood pressure, pulse pressure, heart rate, cardiac output, stroke volume, stroke work
Description: In these plots, centhaquin is tested as the free base in amounts of 0.05, 0.15, and 0.45 mg/kg. Similarly, centhaquin citrate dihydrate is tested in amounts of 0.05, 0.15, and 0.45 mg/kg. These amounts of centhaquin citrate are equivalent to 0.030, 0.089, and 0.267 mg/kg of centhaquin as the free base.

rats in endotoxic shock = experiment: Endotoxic shock induced by E. coli LPS in rats; type: in vivo; settings: 0.05 mg/kg after LPS 30 mg/kg iv; one rat, sacrificed at the end of experiment; vehicle rat died after 270 min
Description: FIG. 14 illustrates the efficiency of a low dose of centhaquin citrate in the treatment of septic shock. In the tests summarized in FIG. 14, anaesthetized rats were immobilized on a surgical board and an incision was made above the femoral vein and artery. The vessels were cleaned and isolated. Heart rate and mean arterial pressure were measured by cannulating left femoral artery with pressure transducer SPR-320 (Millar Instruments), connected to a ML221 bridge amplifier (AD Instruments) through AEC-10C connector and the signals were acquired (1000 S^−) using PowerLab 16/30. Left femoral veins were secured for drug administration using PE 50 tubing (Clay Adams, Parsipanny, N.J.). Right femoral artery was cannulated for blood drawings using PE 50 tubing (Clay Adams, Parsipanny, N.J.). After completion of the surgery, animals were maintained in a steady state for 30 minutes before administration of Lipopolysaccharide (LPS). Endotoxic shock was induced by intravenous injection of E. coli LPS O111:B4 (Sigma Chemical, St. Louis, Mo.) dissolved to a concentration of 10 mg in 0.1 ml of normal saline and a dose of 30 mg/kg was administered. Resuscitation (R) was performed either with vehicle (saline) or with centhaquin citrate (0.05 mg/kg). The rat treated with vehicle has lower blood pressure compared to the rat treated with centhaquin. […]

## N=C(N)NCCCCN [Agmatine]
Hemorrhaged rats
  resuscitative effect: effective resuscitation agent
  resuscitative effect in presence of yohimbine: completely blocked

## CCC1(c2cnc[nH]2)Cc2ccccc2C1 [atipamezole, reference compound]
α2 adrenergic receptors
  effect of the α2 adrenergic antagonist on the resuscitative effect of centhaquin: completely blocked

## Cc1cccc(N2CCN(CCc3ccc4ccccc4n3)CC2)c1.O=C(O)CC(O)(CC(=O)O)C(=O)O [centhaquin citrate]
[1]
  cardiovascular effects compared to centhaquin free base at same mg/kg dose: substantially outperformed centhaquin free base
Rats in endotoxic shock
  survival: 360 min

## COC(=O)[C@@H]1[C@H]2C[C@H]3c4[nH]c5ccccc5c4CCN3C[C@@H]2CC[C@@H]1O [yohimbine, reference compound]
α2 adrenergic receptors
  effect of the α2 adrenergic antagonist on the resuscitative effect of centhaquin: completely blocked
